# Measurements reported in article PMC6773697, “Antileukemic activity of novel adenosine derivatives” (Scientific Reports, 2019).
# pIC50: −log10 of the molar value.
# Columns and labels:
# Type in all cases: cell-based, human
# THP-1 cells = test: XTT cytotoxicity assay, THP-1; conditions: for pIC50: Homo sapiens, THP-1, XTT, 48 h incubation, none in the picture; for sensitivity of cells to the compound: THP-1, XTT
# Procedure: The cytotoxic activity test with XTT (sodium 3′-[1-(phenylaminocarbonyl)- 3,4-tetrazolium]-bis (4-methoxy-6-nitro) benzene sulfonic acid hydrate) is a colorimetric method for determining the parameters associated with cell viability. The cytotoxicity in HL-60, THP-1, MOLT-4, and HMEC-1 cells was measured by the XTT assay. XTT is reduced to formazan by the mitochondrial respiratory chain oxidoreductase, which is active only in living cells. The formed crystals of formazan are dissolved directly in the medium. The amount of product is proportional to the number of live cells.
# The IC50 parameter was determined by dividing the mean absorbance values of the drug-treated samples by those of control cells and defined as the drug concentration causing a 50% reduction of cell viability relative to the control. It was calculated using the “Ed50v10(1)” computer application. Cells were plated in 96-well plates at a density of 15 × 10^3 cells in 100 μL culture medium. Drugs were then added at a concentration range of 10 nM–10,000 nM to obtain a final volume of the mixture of 150 μL. Some cells were preincubated with an ATR kinase inhibitor (VE-821) for 1 h at 37 °C before adding the tested compounds. In this case drugs were added at a concentration range of 10 nM–300 nM. For the XTT assay, after 48 h of incubation, the plates were centrifuged at 1,500 rpm for 10 min at 4 °C, the culture medium was removed, and the cells were suspended in 100 mm^3 of HBSS (Hank’s Buffered Salt Solution) containing 140 mM NaCl, 5 mM KCl, 0.8 mM MgCl2, 1.8 mM CaCl2, 1 mM Na2HPO4, 10 mM HEPES (N- (2-hydroxyethyl) -piperazine-N′- (2-ethanesulfonic acid), and 1% glucose at pH 7.4. Then, 50 μL of XTT solution (in PBS) was added to a final concentration of […]. In addition, PMS (phenazine methosulphate) - methyl dibenzo-N-methylpyrazine sulphate (0.383 mg/cm^3) was used, which was combined with XTT solution at a ratio of 1:50. After 4 h of incubation with XTT, absorbance was measured at a wavelength λ = 450 nm and reference wavelength λ = 690 nm with a microplate reader (BioTek, Winooski, VT, USA).
# MOLT-4 cells = test: Alkaline comet assay, MOLT-4; conditions: MOLT-4, 48 h, 80 nM
# Procedure: Single cell gel electrophoresis (comet assay) was used to detect alkali labile sites, single and double DNA strand breaks, and cross-links induced by genotoxic agents. After electrophoresis and gel staining with 4,6-diamidino-2-phenylindole (DAPI), the released DNA was visible under a fluorescence microscope as a characteristic comet tail. The cells were plated on 24-well plates (20,000 cells/mL) and treated with CLA, CLA-FMOR, CLA-FPIP, or CLA-FPIR at the indicated concentrations for 2, 24, and 48 h at 37 °C. Some cells were preincubated with an ATR kinase inhibitor (VE-821) for 1 h at 37 °C before adding the tested compounds. Next, cells were collected into Eppendorf tubes and rinsed with PBS. Then, cells were suspended in 0.75% low melting point (LMP) agarose dissolved in PBS (pH 7.4) and placed on microscope slides precoated with 0.5% normal melting point (NMP) agarose. […] The slides were stored in a wet chamber at 4 °C and analyzed under a fluorescence microscope. Fifty randomly selected cells from each slide were measured using image analysis (Nikon, Japan) attached to a COHU 4910 video camera, which was equipped with a UV-1 filter block consisting of an excitation filter (359 nm) and a barrier filter (461 nm) connected to the image analysis system Lucia-Comet v. […] In the samples preincubated with VE-821, the level of DNA damage associated with the ATR kinase was determined.
# [1] = system: caspase-3/7 in MOLT-4 cells; test: Caspase 3/7 assay, MOLT-4; conditions: MOLT-4, 48 h
# Procedure: The activities of caspases-3 and −7 were estimated with CellEvent™ Caspse-3/7 Green Detection Reagent (Thermo Fisher Scientific) according to the manufacturer’s protocol. The cells were seeded on 96-well plates (15 × 10^3/ well) and 24 h later, incubated with the appropriate drugs for 24 h or 48 h. The cells were fixed by adding a final concentration of 4% paraformaldehyde solution (10 min, room temperature). Cells were labeled with CellEvent™Caspase-3/7 Green Detection Reagent (5 µM), followed by Hoechst 33342 (5 µg/ml) for 15 minutes in complete medium3. Caspase-3/7 Green Detection Reagent was diluted into PBS with 5% FBS to avoid fluorescence background. […] Fluorescence intensity was measured using a Fluoroskan Ascent FL plate reader (Labsystem, Sweden). Cysteine protease activity was expressed as a ratio of fluorescence of the drug-treated samples to the corresponding untreated controls (taken as 100%). In some experimental variants, cells were preincubated for 1 h with VE-821 (10 µM) or Z-FA-FMK (caspas-3 inhibitor, 0.5 µM) to confirm that the fluorescence observed in both control and drug-treated cells was due to the presence of caspase-3/7 in samples. […]
SMILES,pIC50 (THP-1 cells),sensitivity of cells to the compound (THP-1 cells),"DNA fragmentation, percentage of the DNA in the comet tail (MOLT-4 cells) [%]",caspase-3/7 level [1]
"OC[C@H]1O[C@@H](n2cnc3c(N=CN4CCCC4)nc(Cl)nc32)C[C@@H]1O [CLA-FPIR, [6-deamino-6-(N′, N′-l′, 4′-tetramethyleneformamidino)] cladribine]",7.44,highest sensitivity,–,–
"OC[C@H]1O[C@@H](n2cnc3c(N=CN4CCOCC4)nc(Cl)nc32)C[C@@H]1O [CLA-FMOR, [6-deamino-6-(N′, N′-3′-oxa-1′, 5′-pentamethyleneformamidine)] cladribine]",7.39,highest sensitivity,27,highest changes
